Assay results reported in US8088801B2, “Aryloazol-2-yl cyanoethylamino compounds, method of making and method of using thereof” (Merial Limited, priority 2007, dated 2012).

Experiments:
[1] = tested on: Haemonchus contortus; assay: Method A: screening against Haemonchus contortus, L1 larvae in microtitre plate; details: 96 h, 4 days assessment, read-out: motility inhibition; for inhibition at 0.15 ppm: test concentration 0.15 ppm; for inhibition at 0.0025 ppm: test concentration 0.0025 ppm; for inhibition at 0.04 ppm: test concentration 0.04 ppm; for inhibition at 0.01 ppm: test concentration 0.01 ppm
Description: Method A: Screening Method to Test Activity of Compounds Against Haemonchus contortus.

[2] = tested on: Haemonchus contortus; assay: Method B: Haemonchus contortus in vivo in Mongolian gerbil, oral gavage; parameters: species or system Mongolian gerbil (Meriones unguiculatus); details: 72 h, Mongolian gerbils, read-out: reduction in nematode infestation; for inhibition in vivo at 100 mg/kg: necropsy 3 days after treatment
Experimental: Method B: Screening Method to Test Activity of Compounds Against Haemonchus contortus In Vivo in Mongolian Gerbil (Meriones unguiculatus).
Mongolian gerbils, at least five weeks old, were immunosuppressed and artificially infected with ca. 1000 ensheathed Haemonchus contortus third instar larvae. Six days after infection, the Mongolian gerbils were treated by oral gavage with the test compounds, dissolved in a mixture of 2 parts DMSO and 1 part polyethylene glycol (PEG400), at doses of 100 mg/kg and dissolved in pure polyethylene glycol (PEG400) at doses of 10 and 1 mg/kg. Jirds treated only with the placebo (2 parts DMSO and 1 part PEG400 or pure PEG400) served as controls. On day 9 (3 days after treatment) the jirds were euthanized and necropsied for recovery of parasites from the stomach. Efficacy was calculated as the average % reduction in the number of worms in each test group compared with the average number of worms from the control group. […] Compound numbers 1.001, 1.008, 1.012, 1.013 and 1.014 provided at least 95% reduction in nematode infestation in Mongolian gerbils treated by oral gavage with test article at a dose of 100 mg/kg. Compound numbers 1.012, 1.033, 1.064, 2.008, 2.037, 2.038, 2.040, 2.041, 3.001 provided at least 95% reduction in nematode infestation at a dose of 10 mg/kg. Compound numbers 1.094, 2.048, 3.001, 3.007 and 3.009, provided at least 95% reduction in nematode infestation at a dose of 1 mg/kg. Compound numbers 3.005, 3.006, 3.011, 3.012, 3.017 and 3.019, provided at least 95% reduction in nematode infestation at a dose of 0.5 mg/kg.

[3] = tested on: Trichostrongylus colubriformis; assay: Method D: screening against Trichostrongylus colubriformis, L1 larvae in microtitre plate; details: 96 h, 4 days assessment, read-out: motility inhibition; for inhibition at 0.15 ppm: test concentration 0.15 ppm; for inhibition at 0.04 ppm: test concentration 0.04 ppm; for inhibition at 0.01 ppm: test concentration 0.01 ppm
Experimental: Method D: Screening Method to Test Activity of Compounds Against Trichostrongylus colubriformis.
Twenty L1 Trichostrongylus colubriformis larvae were added to wells of a microtitre plate containing a nutrient medium and the test compound in DMSO. The microtitre plate was then held at 27° C. where the L1 larvae were allowed to develop. An analysis was conducted at 4 days to determine successful development to the L3 stage. Larvae exposed to DMSO and no test compound served as controls. Compounds numbers 1.008, 1.014, 1.042, 1.047, 1.048, 1.073, 2.001, 2.003 and 2.020, gave at least 90% motility inhibition at a test concentration of 0.15 ppm at the 4 days assessment. Compounds numbers 1.001, 1.003, 1.007, 1.011, 1.037, 1.038, 1.043, 1.056, 1.066, 1.070, 1.071, 2.012 and 2.016, gave at least 90% motility inhibition at a test concentration of 0.04 ppm at the 4 days assessment. Compounds numbers 1.012, 1.020, 1.021, 1.033, 1.034, 1.039, 1.064, 1.065, 2.008, 2.009 and 3.005 gave at least 90% motility inhibition at a test concentration of 0.01 ppm at the 4 days assessment. Compounds numbers 1.094, 2.040, 2.048, 2.049, 3.006, 3.009, 3.011 and 3.012 gave at least 90% motility inhibition at a test concentration of 0.0025 ppm at the 4 days assessment.

CC(C#N)(Cn1nc2cc(C(F)(F)F)cc(Cl)c2n1)NC(=O)c1ccc(OC(F)(F)F)cc1 (stereo not shown) [Compound 1.014, N-[2-(4-Chloro-6-trifluoromethyl-2H-benzotriazol-2-yl)-1-cyano-1-methylethyl]-4-trifluoromethoxybenzamide]
inhibition at 0.15 ppm [1]: ≥ 90%
inhibition in vivo at 100 mg/kg [2]: ≥ 95%
inhibition at 0.15 ppm [3]: ≥ 90%

CC(C#N)(Cn1cc2c(Cl)cc(Cl)cc2n1)NC(=O)c1ccc(OC(F)(F)F)cc1 (stereo not shown) [Compound 2.040, N-[1-Cyano-2-(4,6-dichloro-2H-indazol-2-yl)-1-methylethyl]-4-trifluoromethoxybenzamide]
inhibition at 0.0025 ppm [1]: ≥ 90%
inhibition in vivo at 10 mg/kg [2]: ≥ 95%
inhibition at 0.0025 ppm ([3]; test concentration 0.0025 ppm): ≥ 90%

CC(C#N)(Cn1nc2ccc(C(F)(F)F)cc2n1)NC(=O)c1ccc(OC(F)(F)F)cc1 (stereo not shown) [Compound 1.008, N-[1-Cyano-1-methyl-2-(5-trifluoromethyl-2H-benzotriazol-2-yl)ethyl]-4-trifluoromethoxybenzamide]
inhibition at 0.15 ppm [1]: ≥ 90%
inhibition in vivo at 100 mg/kg [2]: ≥ 95%
inhibition at 0.15 ppm [3]: ≥ 90%

COc1c2ncc(Cl)cc2nn1CC(C)(C#N)NC(=O)c1ccc(OC(F)(F)F)cc1 (stereo not shown) [Compound 3.001, N-[2-(6-Chloro-3-methoxy-2H-pyrazolo[4,3-b]pyridin-2-yl)-1-cyano-1-methylethyl]-4-trifluoromethoxybenzamide]
inhibition at 0.0025 ppm [1]: ≥ 90%
inhibition in vivo at 1 mg/kg [2]: ≥ 95%
inhibition in vivo at 10 mg/kg [2]: ≥ 95%

CCC(C#N)(Cn1nc2ccc(Cl)cc2n1)NC(=O)c1ccc(OC(F)(F)F)cc1 (stereo not shown) [Compound 1.047, N-{1-[(5-Chloro-2H-benzotriazol-2-yl)methyl]-1-cyanopropyl}-4-trifluoromethoxybenzamide]
inhibition at 0.04 ppm [1]: ≥ 90%
inhibition at 0.15 ppm [3]: ≥ 90%

CC(C#N)(Cn1nc2cc(C#N)cc(C(F)(F)F)c2n1)NC(=O)c1ccc(OC(F)(F)F)cc1 (stereo not shown) [Compound 1.056, N-[1-Cyano-2-(6-cyano-4-trifluoromethyl-2H-benzotriazol-2-yl)-1-methylethyl]-4-trifluoromethoxybenzamide]
inhibition at 0.04 ppm [1]: ≥ 90%
inhibition at 0.04 ppm [3]: ≥ 90%

COc1c2cc(Cl)cc(Cl)c2nn1CC(C)(C#N)NC(=O)c1ccc(OC(F)(F)F)cc1 (stereo not shown) [Compound 2.020, N-[1-Cyano-2-(5,7-dichloro-3-methoxy-2H-indazol-2-yl)-1-methylethyl]-4-trifluoromethoxybenzamide]
inhibition at 0.15 ppm [1]: ≥ 90%
inhibition at 0.15 ppm [3]: ≥ 90%

CC(C#N)(Cn1nc2cccc(Cl)c2n1)NC(=O)c1ccc(OC(F)(F)F)cc1 (stereo not shown) [Compound 1.043, N-[2-(4-Chloro-2H-benzotriazol-2-yl)-1-cyano-1-methylethyl]-4-trifluoromethoxybenzamide]
inhibition at 0.04 ppm [1]: ≥ 90%
inhibition at 0.04 ppm [3]: ≥ 90%

COc1c2cc(Cl)ccc2nn1CC(C)(C#N)NC(=O)c1ccc(OC(F)(F)F)cc1 (stereo not shown) [Compound 2.012, N-[2-(5-Chloro-3-methoxy-2H-indazol-2-yl)-1-cyano-1-methylethyl]-4-trifluoromethoxybenzamide]
inhibition at 0.01 ppm [1]: ≥ 90%
inhibition at 0.04 ppm [3]: ≥ 90%

COc1c2ncc(Br)c(C)c2nn1CC(C)(C#N)NC(=O)c1ccc(OC(F)(F)F)cc1 (stereo not shown) [Compound 3.007, N-[2-(6-Bromo-3-methoxy-7-methyl-2H-pyrazolo[4,3-b]pyridin-2-yl)-1-cyano-1-methylethyl]-4-trifluoromethoxybenzamide]
inhibition at 0.01 ppm [1]: ≥ 90%
inhibition in vivo at 1 mg/kg [2]: ≥ 95%

CC(C#N)(Cn1nc2cc(Cl)cc(C(F)(F)F)c2n1)NC(=O)c1ccc(Oc2ccccc2)cc1 (stereo not shown) [Compound 1.042, N-[2-(6-Chloro-4-trifluoromethyl-2H-benzotriazol-2-yl)-1-cyano-1-methylethyl]-4-phenoxybenzamide]
inhibition at 0.04 ppm [1]: ≥ 90%
inhibition at 0.15 ppm [3]: ≥ 90%

COc1c2ccccc2nn1CC(C)(C#N)NC(=O)c1ccc(OC(F)(F)F)cc1 (stereo not shown) [Compound 2.016, N-[1-Cyano-2-(3-methoxy-2H-indazol-2-yl)-1-methylethyl]-4-trifluoromethoxybenzamide]
inhibition at 0.04 ppm [1]: ≥ 90%
inhibition at 0.04 ppm [3]: ≥ 90%

CC(C#N)(Cn1nc2ccc(Br)cc2n1)NC(=O)c1ccc(OC(F)(F)F)cc1 (stereo not shown) [Compound 1.020, N-[2-(5-Bromo-2H-benzotriazol-2-yl)-1-cyano-1-methylethyl]-4-trifluoromethoxybenzamide]
inhibition at 0.01 ppm [1]: ≥ 90%
inhibition at 0.01 ppm [3]: ≥ 90%

CC(C#N)(Cn1cc2cc([N+](=O)[O-])ccc2n1)NC(=O)c1ccc(OC(F)(F)F)cc1 (stereo not shown) [Compound 2.001, N-[1-Cyano-1-methyl-2-(5-nitro-2H-indazol-2-yl)ethyl]-4-trifluoromethoxybenzamide]
inhibition at 0.04 ppm [1]: ≥ 90%
inhibition at 0.15 ppm [3]: ≥ 90%

CC(C#N)(Cn1nc2cc(Cl)cc(C(F)(F)F)c2n1)NC(=O)c1ccc(OC(F)(F)F)cc1 (stereo not shown) [Compound 1.037, N-[2-(6-Chloro-4-trifluoromethyl-2H-benzotriazol-2-yl)-1-cyano-1-methylethyl]-4-trifluoromethoxybenzamide]
inhibition at 0.01 ppm [1]: ≥ 90%
inhibition at 0.04 ppm [3]: ≥ 90%

CC(C#N)(Cn1cc2cc(Cl)cc(Cl)c2n1)NC(=O)c1ccc(OC(F)(F)F)cc1 (stereo not shown) [Compound 2.003, N-[1-Cyano-2-(5,7-dichloro-2H-indazol-2-yl)-1-methylethyl]-4-trifluoromethoxybenzamide]
inhibition at 0.04 ppm [1]: ≥ 90%
inhibition at 0.15 ppm [3]: ≥ 90%

CC(C#N)(Cn1cc2ccc(Cl)cc2n1)NC(=O)c1ccc(OC(F)(F)F)cc1 (stereo not shown) [Compound 2.037, N-[2-(6-Chloro-2H-indazol-2-yl)-1-cyano-1-methylethyl]-4-trifluoromethoxybenzamide]
inhibition at 0.0025 ppm [1]: ≥ 90%
inhibition in vivo at 10 mg/kg [2]: ≥ 95%

COc1cc(Cl)c2nn(CC(C)(C#N)NC(=O)c3ccc(OC(F)(F)F)cc3)nc2c1 (stereo not shown) [Compound 1.070, N-[2-(4-Chloro-6-methoxy-2H-benzotriazol-2-yl)-1-cyano-1-methylethyl]-4-trifluoromethoxybenzamide]
inhibition at 0.04 ppm [1]: ≥ 90%
inhibition at 0.04 ppm [3]: ≥ 90%

Cc1cc(Cl)cc2nn(CC(C)(C#N)NC(=O)c3ccc(Oc4ccccc4)cc3)nc12 (stereo not shown) [Compound 1.039, N-[2-(6-Chloro-4-methyl-2H-benzotriazol-2-yl)-1-cyano-1-methylethyl]-4-phenoxybenzamide]
inhibition at 0.01 ppm [1]: ≥ 90%
inhibition at 0.01 ppm [3]: ≥ 90%

CC(C#N)(Cn1nc2cc(Cl)cc(CO)c2n1)NC(=O)c1ccc(OC(F)(F)F)cc1 (stereo not shown) [Compound 1.081, N-[2-(6-Chloro-4-hydroxymethyl-2H-benzotriazol-2-yl)-1-cyano-1-methylethyl]-4-trifluoromethoxybenzamide]
inhibition at 0.15 ppm [1]: ≥ 90%

CC(C#N)(Cn1nc2cc(C(F)(F)F)cc(C(F)(F)F)c2n1)NC(=O)c1ccc(OC(F)(F)F)cc1 (stereo not shown) [Compound 1.018, N-[2-(4,6-Bis(trifluoromethyl)-2H-benzotriazol-2-yl)-1-cyano-1-methylethyl]-4-trifluoromethoxybenzamide]
inhibition at 0.15 ppm [1]: ≥ 90%

CCOc1c2ccc(Cl)cc2nn1CC(C)(C#N)NC(=O)c1ccc(OC(F)(F)F)cc1 (stereo not shown) [Compound 2.027, N-[2-(6-Chloro-3-ethoxy-2H-indazol-2-yl)-1-cyano-1-methylethyl]-4-trifluoromethoxybenzamide]
inhibition at 0.01 ppm [1]: ≥ 90%

Cc1c2ccc(Cl)cc2nn1CC(C)(C#N)NC(=O)c1ccc(OC(F)(F)F)cc1 (stereo not shown) [Compound 2.050, N-[2-(6-Chloro-3-methyl-2H-indazol-2-yl)-1-cyano-1-methylethyl]-4-trifluoromethoxybenzamide]
inhibition at 0.0025 ppm [1]: ≥ 90%
